Tests used:
Assay in all cases: relative viability (nuclei count vs DMSO), 5 days (fraction); higher = more cells survive
Linsitinib + Navitoclax = compound: C[C@]1(O)C[C@@H](c2nc(-c3ccc4ccc(-c5ccccc5)nc4c3)c3c(N)nccn32)C1 [Linsitinib] + CC1(C)CCC(c2ccc(Cl)cc2)=C(CN2CCN(c3ccc(C(=O)NS(=O)(=O)c4ccc(N[C@H](CCN5CCOCC5)CSc5ccccc5)c(S(=O)(=O)C(F)(F)F)c4)cc3)CC2)C1 [Navitoclax] (partner 0.5 µM)
Outline: (§1)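 Cells from lung cancer lines were seeded into 1536-well plates and, one day later, dosed by pin tool. Treatments were either a single drug or a fixed dose of an anchor drug with five library-drug doses (not always all listed) in √10 steps. After 5 days, nuclei were stained in a one-step fixation (final 0.05% Triton X-100, 1% formaldehyde, 1 ug/ml Hoechst) and counted on 4× images, and relative viability is the treated-to-vehicle nuclei ratio, as the median of duplicate plates.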

Linsitinib + Olaparib = compound: C[C@]1(O)C[C@@H](c2nc(-c3ccc4ccc(-c5ccccc5)nc4c3)c3c(N)nccn32)C1 [Linsitinib] + O=C(c1cc(Cc2n[nH]c(=O)c3ccccc23)ccc1F)N1CCN(C(=O)C2CC2)CC1 [Olaparib] (partner 8 µM)
Outline: as §1

Linsitinib + Trametinib = compound: C[C@]1(O)C[C@@H](c2nc(-c3ccc4ccc(-c5ccccc5)nc4c3)c3c(N)nccn32)C1 [Linsitinib] + CC(=O)Nc1cccc(-n2c(=O)n(C3CC3)c(=O)c3c(Nc4ccc(I)cc4F)n(C)c(=O)c(C)c32)c1 [Trametinib] (partner 0.02 µM)
Outline: as §1

Ispinesib + Decitabine = compound: Cc1ccc(C(=O)N(CCCN)[C@@H](c2nc3cc(Cl)ccc3c(=O)n2Cc2ccccc2)C(C)C)cc1 [Ispinesib] + Nc1ncn([C@H]2C[C@H](O)[C@@H](CO)O2)c(=O)n1 [Decitabine] (partner 2 µM)
Outline: as §1

Cell Line | relative viability (Linsitinib + Navitoclax; first compound 0.01 µM) | relative viability (Linsitinib + Navitoclax; first compound 0.03162 µM) | relative viability (Linsitinib + Navitoclax; first compound 0.1 µM) | relative viability (Linsitinib + Navitoclax; first compound 0.3162 µM) | relative viability (Linsitinib + Navitoclax; first compound 1 µM) | relative viability (Linsitinib + Olaparib; first compound 0.01 µM) | relative viability (Linsitinib + Olaparib; first compound 0.03162 µM) | relative viability (Linsitinib + Olaparib; first compound 0.1 µM) | relative viability (Linsitinib + Olaparib; first compound 0.3162 µM) | relative viability (Linsitinib + Olaparib; first compound 1 µM) | relative viability (Linsitinib + Trametinib; first compound 0.01 µM) | relative viability (Linsitinib + Trametinib; first compound 0.03162 µM) | relative viability (Linsitinib + Trametinib; first compound 0.1 µM) | relative viability (Linsitinib + Trametinib; first compound 0.3162 µM) | relative viability (Linsitinib + Trametinib; first compound 1 µM) | relative viability (Ispinesib + Decitabine; first compound 0.001 µM) | relative viability (Ispinesib + Decitabine; first compound 0.003162 µM) | relative viability (Ispinesib + Decitabine; first compound 0.01 µM) | relative viability (Ispinesib + Decitabine; first compound 0.03162 µM) | relative viability (Ispinesib + Decitabine; first compound 0.1 µM)
NCI-H1299 | 1.07 | 1.03 | 1.03 | 0.916 | 1.04 | 0.915 | 1.03 | 1 | 0.976 | 0.93 | – | – | – | – | – | – | – | – | – | –
EMC-BAC-2 | 1.16 | 1.17 | 1.14 | 0.996 | 1.16 | 0.478 | 0.601 | 0.47 | 0.348 | 0.37 | 0.93 | 0.939 | 0.82 | 0.575 | 0.593 | 0.933 | 1.13 | 1.04 | 0.775 | 0.47
NCI-H441 | 0.803 | 0.795 | 1.12 | 0.397 | 0.439 | 0.515 | 0.667 | 0.487 | 0.399 | 0.435 | 0.537 | 0.44 | 0.339 | 0.215 | 0.231 | 0.216 | 0.139 | 0.192 | 0.18 | 0.193
LCLC-103H | – | – | – | – | – | 0.743 | 0.776 | 0.771 | 0.689 | 0.758 | 0.658 | 0.56 | 0.688 | 0.632 | 0.647 | 0.757 | 0.741 | 0.739 | 0.68 | 0.6
HOP-62 | 1.08 | 1.12 | 1.13 | 0.636 | 0.823 | – | 0.247 | 0.524 | 0.244 | 0.393 | 0.405 | 0.39 | 0.427 | – | 0.368 | 0.22 | 0.191 | 0.226 | 0.224 | 0.23

Source: the supplement of paper PMC10307832
